Source: ChEMBL document CHEMBL1131488, “Dihydropyrancarboxamides related to zanamivir: a new series of inhibitors of influenza virus sialidases. 1. Discovery, synthesis, biological activity, and structure-activity relationships of 4-guanidino- and 4-amino-4H-pyran-6-carboxamides” (J Med Chem, 1998)

Columns and labels:
[1] = target: Neuraminidase (Influenza A virus (A/Puerto Rico/8/1934(H1N1)), UniProt P03468); experiment: Inhibition of influenza A virus sialidase activity
[2] = target: T1, Neuraminidase (Influenza B virus (strain B/Lee/1940), UniProt P03474); experiment: Inhibition of influenza B virus sialidase activity
T1 sequence (P03474 whole entry): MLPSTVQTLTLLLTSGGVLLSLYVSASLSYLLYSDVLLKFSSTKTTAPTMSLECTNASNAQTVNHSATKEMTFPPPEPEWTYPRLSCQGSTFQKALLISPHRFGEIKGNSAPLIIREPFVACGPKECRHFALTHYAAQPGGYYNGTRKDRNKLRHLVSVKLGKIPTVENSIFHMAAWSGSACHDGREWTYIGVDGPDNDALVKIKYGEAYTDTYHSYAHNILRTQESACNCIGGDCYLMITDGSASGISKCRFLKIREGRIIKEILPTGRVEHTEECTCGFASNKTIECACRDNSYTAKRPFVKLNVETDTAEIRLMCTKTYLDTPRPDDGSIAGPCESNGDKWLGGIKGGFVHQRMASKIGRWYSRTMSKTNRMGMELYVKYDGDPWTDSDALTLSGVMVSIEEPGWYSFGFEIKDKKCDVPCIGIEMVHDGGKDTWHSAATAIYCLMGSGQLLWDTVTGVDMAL

[3] = target: Neuraminidase (Influenza A virus (A/Puerto Rico/8/1934(H1N1)), UniProt P03468); experiment: Inhibition of sialidase (Flu A, 5 nM)
[4] = system: Mus musculus; experiment: Compound was tested for in vivo efficacy in mouse model of influenza A virus A/Singapore/1/57 at dose of 10 mg/kg.(ip); type: functional
[5] = system: Mus musculus; experiment: Compound was tested for in vivo efficacy in mouse model of influenza A virus A/Singapore/1/57 at dose of 50 mg/kg.(ip); type: functional
[6] = system: Mus musculus; experiment: Compound was tested for in vivo efficacy in mouse model of influenza A virus A/Singapore/1/57 at dose of 1 mg/kg. (in); type: functional
[7] = Vss, volume of distribution at steady state at a dose of 10 mg/kg; type: ADME, organism-based; set-up: dose 10 mg/kg; settings: in vivo, read-out: Vss
[8] = t1/2, plasma elimination half life, the time taken for the plasma concentrations to fall by one half, once distribution is complete at a dose of 10 mg/kg; type: ADME, organism-based; set-up: dose 10 mg/kg
[9] = Clp, plasma clearance at a dose of 10 mg/kg; type: ADME, organism-based; set-up: dose 10 mg/kg; settings: read-out: Clp
[10] = system: Influenza A virus; experiment: Compound was tested for concentration of intranasally administered (in) (10 mg/kg) which reduces virus titer by 90%; type: functional; settings: inhaled or nasal
[11] = system: Influenza A virus; experiment: Compound was tested for in vivo efficacy in mouse model of influenza A virus A/Singapore/1/57 at dose of 100 mg/kg. (i.p.); type: functional; settings: route intraperitoneal
[12] = system: Influenza A virus; experiment: Compound was tested for in vivo efficacy in mouse model of influenza A virus A/Singapore/1/57 at dose of 10 mg/kg. (in); type: functional
[13] = system: Mus musculus; experiment: Compound was tested for in vivo efficacy in mouse model of influenza A virus A/Singapore/1/57 at dose of 50 mg/kg.; type: functional
[14] = system: Mus musculus; experiment: Compound was tested for concentration of intranasally administered drug (1 mg/kg) which reduces virus titer by 90%; type: functional; settings: inhaled or nasal
[15] = system: Mus musculus; experiment: Compound was tested for in vivo efficacy in mouse model of influenza A virus A/Singapore/1/57 at dose of 1 mg/kg.; type: functional
[16] = system: Mus musculus; experiment: Compound was tested for in vivo efficacy in mouse model of influenza A virus A/Singapore/1/57 at dose of 0.1 mg/kg.; type: functional
[17] = target: Neuraminidase (Influenza A virus (A/Puerto Rico/8/1934(H1N1)), UniProt P03468)
[18] = target: Neuraminidase (Influenza A virus (A/Puerto Rico/8/1934(H1N1)), UniProt P03468); remark: listed apart in the source
[19] = target: Neuraminidase (Influenza A virus (A/Puerto Rico/8/1934(H1N1)), UniProt P03468); remark: listed apart in the source
[20] = target: Neuraminidase (Influenza A virus (A/Puerto Rico/8/1934(H1N1)), UniProt P03468); remark: listed apart in the source
[21] = target: T1, Neuraminidase; experiment: Inhibitory activity against sialidase of influenza B virus by plaque reduction assay
[22] = system: Mus musculus; experiment: Compound was tested for concentration of intranasally administered drug (0.5 mg/kg) which reduces virus titer by 90%; type: functional; settings: inhaled or nasal
[23] = t1/2, plasma elimination half life, the time taken for the plasma concentrations to fall by one half, once distribution is complete at a dose of 50 mg/kg; type: ADME, organism-based; set-up: dose 50 mg/kg
[24] = Clp, plasma clearance at a dose of 50 mg/kg; type: ADME, organism-based; set-up: dose 50 mg/kg; settings: read-out: Clp
[25] = system: Mus musculus; experiment: Compound was tested for in vivo efficacy in mouse model of influenza A virus A/Singapore/1/57 at dose of 50 mg/kg (ip); type: functional
[26] = system: Mus musculus; experiment: Compound was tested for in vivo efficacy in mouse model of influenza A virus A/Singapore/1/57 at dose of 0.5 mg/kg (in); type: functional
[27] = Vss, volume of distribution at steady state at a dose of 50 mg/kg; type: ADME, organism-based; set-up: dose 50 mg/kg; settings: in vivo, read-out: Vss

Neuraminidase (Influenza A virus (A/Puerto Rico/8/1934(H1N1)), UniProt P03468), sequence (P03468 whole entry): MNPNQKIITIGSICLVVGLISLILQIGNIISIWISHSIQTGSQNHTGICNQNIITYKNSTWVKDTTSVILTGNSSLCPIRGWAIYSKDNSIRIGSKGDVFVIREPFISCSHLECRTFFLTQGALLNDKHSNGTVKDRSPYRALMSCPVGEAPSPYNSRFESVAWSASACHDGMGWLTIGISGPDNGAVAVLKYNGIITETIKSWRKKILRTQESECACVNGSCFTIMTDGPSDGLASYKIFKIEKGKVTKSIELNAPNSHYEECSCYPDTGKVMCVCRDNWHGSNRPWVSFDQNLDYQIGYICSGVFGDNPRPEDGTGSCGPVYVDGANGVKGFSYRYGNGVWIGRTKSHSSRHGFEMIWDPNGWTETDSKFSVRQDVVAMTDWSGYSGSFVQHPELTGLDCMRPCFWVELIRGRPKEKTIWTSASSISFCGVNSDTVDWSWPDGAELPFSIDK

For CC(=O)N[C@@H]1[C@@H](N)C=C(C(=O)O)O[C@H]1C(=O)N(CCc1ccccc1)CC(N)=O, the IC50 [1] was 19 µM and the IC50 [2] was 31 µM.
In the case of CC(=O)N[C@@H]1[C@@H](N)C=C(C(=O)O)O[C@H]1C(=O)NCCN, the IC50 [3] is reported as > 390 µM.
CCCN(CCc1cccc(-c2ccccc2)c1)C(=O)[C@@H]1OC(C(=O)O)=C[C@H](N)[C@H]1NC(C)=O gave an IC50 [1] of 0.002 µM and an IC50 [2] of 4.5 µM.
Work on CCCN(CCCc1ccccc1)C(=O)[C@@H]1OC(C(=O)O)=C[C@H](N)[C@H]1NC(C)=O yielded an IC50 [1] of 0.018 µM and an IC50 [2] of 46 µM.
With CC(=O)N[C@@H]1[C@@H](N)C=C(C(=O)O)O[C@H]1C(=O)N(CCc1ccccc1)CC(=O)O the IC50 [1] was 130 µM and the IC50 [2] was 75 µM.
For CCCN(CCc1ccccc1OC)C(=O)[C@@H]1OC(C(=O)O)=C[C@H](N)[C@H]1NC(C)=O, the IC50 [1] was 0.009 µM and the IC50 [2] was 12 µM.
In the case of CCCCCCCCCN(CCC)C(=O)[C@@H]1OC(C(=O)O)=C[C@H](N=C(N)N)[C@H]1NC(C)=O, the “Reduction in virus titer” value [4] is reported as >99.99%, the “Reduction in virus titer” value [5] is reported as 50% and the “Reduction in virus titer” value [6] is reported as 72%. The IC50 [1] was 0.007 µM, the Vd [7] was 1.2 L/kg and the half-life [8] was 55.2 min. The clearance [9] was 21.8 mL/min/kg and the IC50 [2] was > 3 µM.
In the case of CC(=O)N[C@@H]1[C@@H](N)C=C(C(=O)O)O[C@H]1C(=O)N(CCc1ccccc1)CCN(C)C, the IC50 [1] is reported as > 300 µM and the IC50 [2] is reported as > 300 µM.
For CC(=O)N[C@@H]1[C@@H](N)C=C(C(=O)O)O[C@H]1C(=O)N(CCc1ccccc1)C(C)C, the IC50 [1] was 0.008 µM and the IC50 [2] was 7.9 µM.
Compound CCCN(CCc1cccc(OC)c1)C(=O)[C@@H]1OC(C(=O)O)=C[C@H](N)[C@H]1NC(C)=O has an IC50 [1] of 0.005 µM and an IC50 [2] of 3.2 µM.
In the case of CCCN(CCc1ccc(Cl)cc1Cl)C(=O)[C@@H]1OC(C(=O)O)=C[C@H](N)[C@H]1NC(C)=O, the IC50 [1] is reported as 0.006 µM and the IC50 [2] is reported as 16 µM.
With CCCN(Cc1ccccc1)C(=O)[C@@H]1OC(C(=O)O)=C[C@H](N)[C@H]1NC(C)=O the IC50 [1] was 4.2 µM and the IC50 [2] was 180 µM.
In the case of CCCN(CCc1ccc(C(C)C)cc1)C(=O)[C@@H]1OC(C(=O)O)=C[C@H](N)[C@H]1NC(C)=O, the IC50 [1] is reported as 0.012 µM and the IC50 [2] is reported as 6.2 µM.
For CCCCCCCCCN(CCC)C(=O)[C@@H]1OC(C(=O)O)=C[C@H](N)[C@H]1NC(C)=O, the ED90 [10] was > 1 mg/kg, the “Reduction in virus titer” value [11] was 71% and the “Reduction in virus titer” value [12] was 96%. The Vd [7] was 1.3 L/kg, the half-life [8] was 52.2 min and the clearance [9] was 17.9 mL/min/kg.
For CCCN(CCC)C(=O)[C@@H]1OC(C(=O)O)=C[C@H](NC(=N)N)[C@H]1NC(C)=O, the “Reduction in virus titer” value [13] was 86%, the ED90 [14] was < 0.01 mg/kg and the “Reduction in virus titer” value [15] was 99.93%. The “Reduction in virus titer” value [16] was 99.3%, the Vd [7] was 0.5 L/kg and the half-life [8] was 22.2 min. The clearance [9] was 6 mL/min/kg.
Compound CC(=O)N[C@@H]1[C@@H](N)C=C(C(=O)O)O[C@H]1C(=O)N(CCc1ccccc1)C1CC1 has an IC50 [1] of 0.046 µM and an IC50 [2] of 36 µM.
CCCN(C)C(=O)[C@@H]1OC(C(=O)O)=C[C@H](N)[C@H]1NC(C)=O gave an IC50 [17] of 3.7 µM, an IC50 [18] of 0.11 µM and an IC50 [19] of 0.18 µM. The IC50 [20] was 4.7 µM.
With CC(=O)N[C@@H]1[C@@H](N)C=C(C(=O)O)O[C@H]1C(=O)NCCc1ccccc1 the IC50 [21] was > 100 µg/mL.
With CCN(CC)C(=O)[C@@H]1OC(C(=O)O)=C[C@H](NC(=N)N)[C@H]1NC(C)=O the “Reduction in virus titer” value [13] was 89%.
CCCN(CCc1ccc(-c2ccccc2)cc1)C(=O)[C@@H]1OC(C(=O)O)=C[C@H](N)[C@H]1NC(C)=O gave an IC50 [1] of 0.002 µM.
With CCCN(CC)C(=O)[C@@H]1OC(C(=O)O)=C[C@H](N)[C@H]1NC(C)=O the IC50 [2] was 0.41 µM.
With CC(=O)N[C@H]1[C@H]([C@H](O)[C@H](O)CO)OC(C(=O)O)=C[C@@H]1NC(=N)N [ZANAMIVIR] the ED90 [22] was 0.03 mg/kg, the half-life [23] was 9.6 min and the clearance [24] was 24.9 mL/min/kg. For the same compound, the “Reduction in virus titer” value [25] was 96.2%, the “Reduction in virus titer” value [26] was 99.5% and the Vd [27] was 0.3 L/kg.
